We go through ten compounds from PubChem BioAssay (NCI).

Values joined by “and” are separate entries in the source; they are usually repeats but may differ in a detail not shown here. Equal values may be shown once.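 Test compounds were applied to cells in 96-well plates for 48 hours at 5 doses. At the GI50, growth is halved. Definition used: TGI = concentration required for complete inhibition of growth.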

Assay in all cases: growth of human tumour cells (NCI), 48 h
Test [1] concerns IGROV1 ovarian.
For test [2], the system named is SK-OV-3 ovarian.
The test system of test [3] is ACHN renal.
Test [4] concerns SN12C renal.
For test [5], the system named is SK-MEL-2 melanoma.
Test [6] deals with HL-60(TB) leukemia.
For test [7], the system named is TK-10 renal.
For test [8], the system named is SNB-75 CNS.

With `CCOc1ccccc1/C=N\N=C(N/N=C/c1ccccc1OCC)N/N=C/c1ccccc1OCC`, the GI50 in test [1] was 3.04 µM; in test [2], 1.65 µM; in test [3] it was 1.56 µM; in test [4], 2.32 µM; in test [5], 2.78 µM; in test [6], 5.21 µM. In addition, the GI50 in test [7] was 2.81 µM; in test [8], 2.2 µM. Further, the TGI was over 100 µM in test [1]; 6.15 µM in test [2]; over 100 µM in test [3]; over 100 µM in test [4]; over 100 µM in test [5]; over 100 µM in test [6]. Also, the TGI in test [7] and in test [8] was over 100 µM throughout.
Regarding `CCOC(=O)c1c(NN2CCN(CC(F)(F)F)CC2)oc(/C=C2\C=Nc3ncccc32)c1O`, the GI50 in test [1] is 7.43 µM; in test [2], 2.93 µM; in test [3], 5.85 µM; in test [4], 4.26 µM; in test [5], 2.25 µM; in test [6], 1.85 µM. In addition, the GI50 in test [7] is 3.37 µM; in test [8] it was 0.325 µM. The TGI in test [1] was 47.8 µM; in test [2] it was 19.8 µM; in test [3] it was 77.4 µM; in test [4] it was 42.6 µM; in test [5], 4.8 µM; in test [6], 4.67 µM. Also, the TGI came to 24 µM in test [7] and 11.6 µM in test [8].
For `COC(=O)CCc1n(Cc2ccc3ccccc3c2)c2ccccc2[n+]1Cc1ccc2ccccc2c1`, the GI50 in test [1] is 0.441 µM; in test [2], 1.89 µM; in test [3], 3.71 µM; in test [4], 0.833 µM; in test [5] it was 1.23 µM; in test [6], 0.207 µM. Also, the GI50 in test [7] is 1.49 µM; in test [8], 0.93 µM. Further, the TGI was found to be 1.9 µM in test [1]; 4.85 µM in test [2]; 13.1 µM in test [3]; 2.19 µM in test [4]; 2.72 µM in test [5]; 0.799 µM in test [6]. Moreover, the results for the TGI in test [7] and in test [8] were 2.96 µM and 2.26 µM, respectively.
For the compound `CCCCCCOC(=O)CC1=C(C)/C(=C/c2[nH]c(-c3ccc[nH]3)cc2OC)N=C1C`, the GI50 is 0.178 µM in test [1]; 0.279 µM in test [2]; 0.0663 µM in test [3]; 0.0532 µM in test [5]; 0.385 µM in test [6]; 0.108 µM in test [7]. The GI50 in test [8] was 0.0372 µM. Besides, the TGI in test [1] stood at 1.23 µM; in test [2] it was 1.24 µM; in test [3] it was 0.779 µM; in test [5] it was 0.23 µM; in test [6], 1.76 µM; in test [7] it was 1.38 µM. The same compound showed a TGI in test [8] of 0.3 µM.
Consider `CC(=O)O[C@@H]1c2c(c3c(=O)c4cccc(O)c4c(=O)c=3c2=[N+]=[N-])[C@H](OC(C)=O)[C@@H](OC(C)=O)[C@]1(C)O`, for which the GI50 was 0.3 µM in test [1]; 1.01 µM in test [2]; 0.161 µM in test [3]; 0.236 µM and 0.0851 µM in test [4]; 0.495 µM in test [5]; 0.172 µM in test [6]. Besides, the GI50 in test [7] was 0.191 µM; in test [8] it was 0.582 µM. Moreover, the TGI is 0.987 µM and 1.15 µM in test [1]; 2.11 µM and 2 µM in test [2]; 0.374 µM and 0.3 µM in test [3]; 0.815 µM and 0.288 µM in test [4]; 1.63 µM and 1.18 µM in test [5]; 1.14 µM and 0.365 µM in test [7]. In addition, the TGI in test [8] is 0.851 µM and 1.69 µM.
With `CC(=O)OCC1OC(SC2=N/C(=C\c3ccc(Br)s3)C(=O)N2c2ccccc2)C(OC(C)=O)C(OC(C)=O)C1OC(C)=O` (centres undefined), the GI50 is 87.4 µM and 41.7 µM in test [1]; 8.5 µM and 3.83 µM in test [6]; 25.1 µM and > 100 µM in test [8]. In addition, the TGI is over 100 µM in test [1]; over 100 µM in test [3]; over 100 µM in test [4]; > 100 µM and 48.9 µM in test [5]; > 100 µM and 21.4 µM in test [6]; over 100 µM in test [7]. Further, the TGI in test [8] was 61.4 µM and > 100 µM.
As to `O=Cc1ccc(-c2ccc(-c3nc4ccccc4s3)cc2)o1`, the GI50 was over 100 µM in test [1]; over 100 µM in test [2]; over 100 µM in test [3]; over 100 µM in test [4]; over 100 µM in test [5]; 22.4 µM in test [7]. Further, in test [8], the GI50 is over 100 µM. Further, the TGI in test [1] was over 100 µM; in test [2], over 100 µM; in test [3] it was over 100 µM; in test [4] it was over 100 µM; in test [5], over 100 µM; in test [7], 54 µM. In addition, in test [8], the TGI was over 100 µM.
`Clc1ccc(-c2cnc3c(-c4ccnc(N5CCNCC5)c4)cnn3c2)cc1`: the GI50 is 3.34 µM in test [1]; 2.72 µM in test [2]; 1.7 µM in test [4]; 0.561 µM in test [5]; 1.25 µM in test [6]; 1.99 µM in test [7]. For the same compound, the GI50 in test [8] was 1.56 µM. Moreover, the TGI in test [1] is 11.6 µM; in test [2], 5.63 µM; in test [4], 3.34 µM; in test [5], 1.69 µM; in test [6], 3.26 µM; in test [7], 3.43 µM. Besides, in test [8], the TGI was 2.91 µM.
Regarding `CCCCCCCCCCCCCCCCn1cc[n+](C)c1`, the GI50 in test [1] was 0.201 µM; in test [2], 0.941 µM; in test [3], 0.613 µM; in test [4], 0.667 µM; in test [6], 0.129 µM; in test [7], 0.254 µM. Also, the TGI in test [1] was 0.517 µM; in test [2] it was 3.17 µM; in test [3] it was 2.01 µM; in test [4] it was 1.89 µM; in test [6] it was 0.321 µM; in test [7], 0.929 µM.
Turning to `COc1ccc2c(n1)Sc1nc3ccccc3nc1N2`, the TGI in test [1] was over 100 µM; in test [2] it was over 100 µM; in test [3], over 100 µM; in test [4], 71.6 µM; in test [5] it was over 100 µM; in test [7], 80.1 µM. In test [8], this compound had a TGI of over 100 µM.
